Target: T1, Coagulation factor X (Homo sapiens, UniProt P00742)
Assay: The compound was tested in vitro for inhibitory activity against Coagulation factor X; inactive; call rule not given here

T1 sequence (P00742 41-179 limits assumed): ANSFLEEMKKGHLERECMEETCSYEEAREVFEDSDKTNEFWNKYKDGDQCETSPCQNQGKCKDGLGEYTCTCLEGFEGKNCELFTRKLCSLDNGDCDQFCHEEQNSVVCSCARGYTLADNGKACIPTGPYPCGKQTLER
T1 sequence (P00742 235-488 limits assumed): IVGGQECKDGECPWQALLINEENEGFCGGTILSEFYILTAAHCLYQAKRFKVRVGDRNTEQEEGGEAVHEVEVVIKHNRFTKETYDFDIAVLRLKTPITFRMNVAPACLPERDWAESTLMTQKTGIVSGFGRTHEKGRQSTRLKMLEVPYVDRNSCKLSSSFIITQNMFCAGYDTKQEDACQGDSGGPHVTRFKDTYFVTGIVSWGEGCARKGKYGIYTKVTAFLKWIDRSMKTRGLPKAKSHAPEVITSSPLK

Row | SMILES | IC50
1 | N=C(N)N1CCC[C@H](NC(=O)CN2CCC[C@](N)(Cc3ccccc3)C2=O)C1O.O=C(O)C(F)(F)F (some centres undefined) | Not Active

Target: Serine protease 1 (Homo sapiens, UniProt P07477)
Assay: The compound was tested in vitro for inhibitory activity against human trypsin

Serine protease 1, sequence (P07477 whole entry): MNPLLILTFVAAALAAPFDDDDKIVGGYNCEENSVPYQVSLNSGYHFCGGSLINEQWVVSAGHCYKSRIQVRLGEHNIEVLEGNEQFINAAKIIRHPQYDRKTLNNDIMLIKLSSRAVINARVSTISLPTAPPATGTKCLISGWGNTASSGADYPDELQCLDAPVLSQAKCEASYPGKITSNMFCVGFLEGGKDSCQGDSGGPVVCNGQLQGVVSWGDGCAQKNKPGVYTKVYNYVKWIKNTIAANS

Row | SMILES | IC50
2 | N=C(N)N1CCC[C@H](NC(=O)CN2CCC(NS(=O)(=O)Cc3ccccc3)C2=O)C1O (some centres undefined) | 538 nM
3 | N=C(N)N1CCC[C@H](NC(=O)CN2CCC[C@@](N)(Cc3ccccc3)C2=O)C1O.O=C(O)C(F)(F)F (some centres undefined) | 139 nM
4 | N=C(N)N1CCC[C@H](NC(=O)CN2CCCC[C@@](N)(Cc3ccccc3)C2=O)C1O (some centres undefined) | 969 nM
5 | N=C(N)N1CCC[C@H](NC(=O)CN2CCC[C@](N)(Cc3ccccc3)C2=O)C1O.O=C(O)C(F)(F)F (some centres undefined) | 2500 nM
6 | N=C(N)N1CCC[C@H](NC(=O)CN2CCC[C@H](NS(=O)(=O)Cc3ccccc3)C2=O)C1O (some centres undefined) | 1270 nM
7 | COC(=O)NC1(Cc2ccccc2)CCCCN(CC(=O)N[C@H]2CCCN(C(=N)N)C2O)C1=O (some centres undefined) | 2500 nM
8 | CS(=O)(=O)NC1(Cc2ccccc2)CCCN(CC(=O)N[C@H]2CCCN(C(=N)N)C2O)C1=O (some centres undefined) | 52.2 nM
9 | N=C(N)N1CCC[C@H](NC(=O)CN2CCCC[C@H](NS(=O)(=O)Cc3ccccc3)C2=O)C1O (some centres undefined) | 152 nM
10 | N=C(N)N1CCC[C@H](NC(=O)CN2CC[C@@](N)(Cc3ccccc3)C2=O)C1O (some centres undefined) | 1380 nM
11 | N=C(N)N1CCC[C@H](NC(=O)CN2CCCC[C@](N)(Cc3ccccc3)C2=O)C1O.O=C(O)C(F)(F)F (some centres undefined) | 2500 nM

Target: T1, Coagulation factor X
Assay: The compound was tested in vitro for inhibitory activity against Coagulation factor X

Row | SMILES | IC50
12 | N=C(N)N1CCC[C@H](NC(=O)CN2CCC(NS(=O)(=O)Cc3ccccc3)C2=O)C1O (some centres undefined) | > 2500 nM
13 | N=C(N)N1CCC[C@H](NC(=O)CN2CCCC[C@@](N)(Cc3ccccc3)C2=O)C1O (some centres undefined) | > 2500 nM
14 | N=C(N)N1CCC[C@H](NC(=O)CN2CCC[C@H](NS(=O)(=O)Cc3ccccc3)C2=O)C1O (some centres undefined) | > 2500 nM
15 | COC(=O)NC1(Cc2ccccc2)CCCCN(CC(=O)N[C@H]2CCCN(C(=N)N)C2O)C1=O (some centres undefined) | 2500 nM
16 | CS(=O)(=O)NC1(Cc2ccccc2)CCCN(CC(=O)N[C@H]2CCCN(C(=N)N)C2O)C1=O (some centres undefined) | > 2500 nM
17 | N=C(N)N1CCC[C@H](NC(=O)CN2CCCC[C@H](NS(=O)(=O)Cc3ccccc3)C2=O)C1O (some centres undefined) | 22.8 nM
18 | N=C(N)N1CCC[C@H](NC(=O)CN2CC[C@@](N)(Cc3ccccc3)C2=O)C1O (some centres undefined) | 2500 nM

Target: Prothrombin (Homo sapiens, UniProt P00734)
Assay: The compound was tested in vitro for inhibitory activity against Coagulation factor II

Row | SMILES | IC50
19 | N=C(N)N1CCC[C@H](NC(=O)CN2CCC(NS(=O)(=O)Cc3ccccc3)C2=O)C1O (some centres undefined) | 125 nM
20 | N=C(N)N1CCC[C@H](NC(=O)CN2CCC[C@@](N)(Cc3ccccc3)C2=O)C1O.O=C(O)C(F)(F)F (some centres undefined) | 2.07 nM
21 | N=C(N)N1CCC[C@H](NC(=O)CN2CCCC[C@@](N)(Cc3ccccc3)C2=O)C1O (some centres undefined) | 14.9 nM
22 | N=C(N)N1CCC[C@H](NC(=O)CN2CCC[C@](N)(Cc3ccccc3)C2=O)C1O.O=C(O)C(F)(F)F (some centres undefined) | 138 nM
23 | COC(=O)NC1(Cc2ccccc2)CCCCN(CC(=O)N[C@H]2CCCN(C(=N)N)C2O)C1=O (some centres undefined) | 466 nM
24 | CS(=O)(=O)NC1(Cc2ccccc2)CCCN(CC(=O)N[C@H]2CCCN(C(=N)N)C2O)C1=O (some centres undefined) | 31.9 nM
25 | N=C(N)N1CCC[C@H](NC(=O)CN2CCCC[C@H](NS(=O)(=O)Cc3ccccc3)C2=O)C1O (some centres undefined) | 0.71 nM
26 | N=C(N)N1CCC[C@H](NC(=O)CN2CC[C@@](N)(Cc3ccccc3)C2=O)C1O (some centres undefined) | 1380 nM
27 | N=C(N)N1CCC[C@H](NC(=O)CN2CCCC[C@](N)(Cc3ccccc3)C2=O)C1O.O=C(O)C(F)(F)F (some centres undefined) | 193 nM

Target: T1, Coagulation factor X
Assay: The compound was tested in vitro for inhibitory activity against Coagulation factor X; Inactive

Row | SMILES | IC50
28 | N=C(N)N1CCC[C@H](NC(=O)CN2CCC[C@@](N)(Cc3ccccc3)C2=O)C1O.O=C(O)C(F)(F)F (some centres undefined) | Not Active
29 | N=C(N)N1CCC[C@H](NC(=O)CN2CCCC[C@](N)(Cc3ccccc3)C2=O)C1O.O=C(O)C(F)(F)F (some centres undefined) | Not Active
